In patent US20230406885A1, “CYCLIC PEPTIDES FOR TRAPPING INTERLEUKIN-1 BETA” (MERCK SHARP & DOHME LLC, priority 2022, published 2023):
*1 amine or outer side, *2 acyl side, *3 side chain or, on linkers, in order; H or OH if unused. Where a SMILES comes first, the peptide text is derived from it. [ ]: non-standard residue; d: D form. Trp(4-Cl)(βS-Me) = C[C@@H](c1c[nH]c2cccc(Cl)c12)[C@H](N)C(=O)O; Trp(βS-Me,4-F) = C[C@@H](c1c[nH]c2cccc(F)c12)[C@H](N)C(=O)O; Bip(4'-COOH) = N[C@@H](Cc1ccc(-c2ccc(C(=O)O)cc2)cc1)C(=O)O; Phe(4-COOH) = N[C@@H](Cc1ccc(C(=O)O)cc1)C(=O)O; h3Pal(5-CN) = N#Cc1cncc(CC[C@H](N)C(=O)O)c1; Pro(4R-NH2) = N[C@H]1CN[C@H](C(=O)O)C1; X7 = O=C([C@H](CCN1CCOCC1)N[*:1])[*:2]; 1Nal = N[C@@H](Cc1cccc2ccccc12)C(=O)O; AEF = NCCOc1ccc(C[C@H](N)C(=O)O)cc1; hTyr = N[C@@H](CCc1ccc(O)cc1)C(=O)O; hPhe = N[C@@H](CCc1ccccc1)C(=O)O; 4Pal = N[C@@H](Cc1ccncc1)C(=O)O; dDab = NCC[C@@H](N)C(=O)O; dNMeA = CN[C@H](C)C(=O)O; Dab = NCC[C@H](N)C(=O)O; Nva = CCC[C@H](N)C(=O)O

Biological target: T1, Recombinant human IL-1β (Homo sapiens, UniProt P01584)
T1 construct: purchased BioLegend 579404
T1 sequence (P01584 117-269): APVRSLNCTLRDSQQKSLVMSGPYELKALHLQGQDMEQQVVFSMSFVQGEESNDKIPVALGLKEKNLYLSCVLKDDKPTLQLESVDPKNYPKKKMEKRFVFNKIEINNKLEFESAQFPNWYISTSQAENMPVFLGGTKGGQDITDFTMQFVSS
Test: IL-6 assay in MRC5 cells: inhibition of IL-1β induced IL-6 secretion (AlphaLISA)
Type: cell-based
Settings: inhibition of IL-1β induced IL-6 secretion in MRC5 cells; read-out: MRC5 IC50
How it was run: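 IL-1β at 2×EC80 in seeding medium (EMEM, 0.025% BSA) preincubated 1 h at ambient temperature with compound, then 3000 MRC5 cells/well added and incubated overnight at 37 °C, 5% CO2. IL-6 in conditioned medium quantified by AlphaLISA; IC50 from 4-parameter logistic fit.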

Compound	IC50 [nM]
CC(=O)NCCOc1ccc(C[C@@H]2NC(=O)[C@H](CCc3ccc(O)cc3)NC(=O)[C@@H](CCN)NC(=O)[C@H](CC(C)C)NC(=O)[C@H](Cc3c[nH]c4ccccc34)NC(=O)[C@H](Cc3ccc(-c4ccc(C(=O)O)cc4)cc3)NC(=O)CNC(=O)[C@@H](C)N(C)C(=O)[C@H](CC(=O)O)NC(=O)[C@H]([C@@H](C)c3c[nH]c4cccc(Cl)c34)NC(=O)[C@@H]3C[C@@H](N)CN3C(=O)CNC(=O)[C@H](Cc3ccc(C(=O)O)cc3)NC(=O)[C@H](Cc3c[nH]c4ccccc34)NC2=O)cc1 [Example 149] (cyclo([AEF](Ac)W[Phe(4-COOH)]G[Pro(4R-NH2)][Trp(4-Cl)(βS-Me)]D[dNMeA]G[Bip(4'-COOH)]WL[dDab][hTyr]))	0.81
CC(=O)NCCOc1ccc(C[C@@H]2NC(=O)[C@H](CCc3ccccc3)NC(=O)[C@@H](C)NC(=O)[C@H](CO)NC(=O)[C@H](Cc3c[nH]c4ccccc34)NC(=O)[C@H](Cc3ccc(-c4ccc(C(=O)O)cc4)cc3)NC(=O)CNC(=O)[C@@H](C)N(C)C(=O)[C@H](CC(=O)O)NC(=O)[C@H]([C@@H](C)c3c[nH]c4cccc(Cl)c34)NC(=O)[C@@H]3C[C@@H](N)CN3C(=O)CNC(=O)[C@H](Cc3ccc(C(=O)O)cc3)NC(=O)[C@H](Cc3c[nH]c4ccccc34)NC2=O)cc1 [Example 150] (cyclo([AEF](Ac)W[Phe(4-COOH)]G[Pro(4R-NH2)][Trp(4-Cl)(βS-Me)]D[dNMeA]G[Bip(4'-COOH)]WS[dA][hPhe]))	0.0633
CC(=O)NCCOc1ccc(C[C@@H]2NC(=O)[C@H](CCc3ccc(O)cc3)NC(=O)[C@@H](C)NC(=O)[C@H](CO)NC(=O)[C@H](Cc3c[nH]c4ccccc34)NC(=O)[C@H](Cc3ccc(-c4ccc(C(=O)O)cc4)cc3)NC(=O)CNC(=O)[C@@H](C)N(C)C(=O)[C@H](CC(=O)O)NC(=O)[C@H]([C@@H](C)c3c[nH]c4cccc(Cl)c34)NC(=O)[C@@H]3C[C@@H](N)CN3C(=O)CNC(=O)[C@H](Cc3ccc(C(=O)O)cc3)NC(=O)[C@H](Cc3c[nH]c4ccccc34)NC2=O)cc1 [Example 151] (cyclo([AEF](Ac)W[Phe(4-COOH)]G[Pro(4R-NH2)][Trp(4-Cl)(βS-Me)]D[dNMeA]G[Bip(4'-COOH)]WS[dA][hTyr]))	0.0759
COC[C@@H]1NC(=O)[C@H](Cc2c[nH]c3ccccc23)NC(=O)[C@H](Cc2ccc(-c3ccc(C(=O)O)cc3)cc2)NC(=O)CNC(=O)[C@@H](C)N(C)C(=O)[C@H](CC(=O)O)NC(=O)[C@H]([C@@H](C)c2c[nH]c3cccc(Cl)c23)NC(=O)[C@@H]2C[C@@H](N)CN2C(=O)CNC(=O)[C@H](Cc2ccc(C(=O)O)cc2)NC(=O)[C@H](Cc2c[nH]c3ccccc23)NC(=O)[C@H](Cc2ccc(OCCNC(C)=O)cc2)NC(=O)[C@H](CCc2ccccc2)NC(=O)[C@@H](C)NC1=O [Example 152] (cyclo([AEF](Ac)W[Phe(4-COOH)]G[Pro(4R-NH2)][Trp(4-Cl)(βS-Me)]D[dNMeA]G[Bip(4'-COOH)]WS(Me)[dA][hPhe]))	0.06
COC[C@@H]1NC(=O)[C@H](Cc2c[nH]c3ccccc23)NC(=O)[C@H](Cc2ccc(-c3ccc(C(=O)O)cc3)cc2)NC(=O)CNC(=O)[C@@H](C)N(C)C(=O)[C@H](CC(=O)O)NC(=O)[C@H]([C@@H](C)c2c[nH]c3cccc(Cl)c23)NC(=O)[C@@H]2C[C@@H](N)CN2C(=O)CNC(=O)[C@H](Cc2ccc(C(=O)O)cc2)NC(=O)[C@H](Cc2c[nH]c3ccccc23)NC(=O)[C@H](Cc2ccc(OCCNC(C)=O)cc2)NC(=O)[C@H](CCc2ccc(O)cc2)NC(=O)[C@@H](C)NC1=O [Example 153] (cyclo([AEF](Ac)W[Phe(4-COOH)]G[Pro(4R-NH2)][Trp(4-Cl)(βS-Me)]D[dNMeA]G[Bip(4'-COOH)]WS(Me)[dA][hTyr]))	0.088
CC(=O)NCCOc1ccc(C[C@@H]2NC(=O)[C@H](CCc3ccc(O)cc3)NC(=O)[C@@H](C)NC(=O)[C@H](CCN)NC(=O)[C@H](Cc3cccc4ccccc34)NC(=O)[C@H](Cc3ccc(-c4ccc(C(=O)O)cc4)cc3)NC(=O)CNC(=O)[C@@H](C)N(C)C(=O)[C@H](CC(=O)O)NC(=O)[C@H]([C@@H](C)c3c[nH]c4cccc(F)c34)NC(=O)[C@@H]3C[C@@H](N)CN3C(=O)CNC(=O)[C@H](Cc3ccc(C(=O)O)cc3)NC(=O)[C@H](Cc3c[nH]c4ccccc34)NC2=O)cc1 [Example 154] (cyclo([AEF](Ac)W[Phe(4-COOH)]G[Pro(4R-NH2)][Trp(βS-Me,4-F)]D[dNMeA]G[Bip(4'-COOH)][1Nal][Dab][dA][hTyr]))	0.196
CC(=O)NCCOc1ccc(C[C@@H]2NC(=O)[C@H](CCc3ccc(O)cc3)NC(=O)[C@@H](C)NC(=O)[C@H](CO)NC(=O)[C@H](Cc3cccc4ccccc34)NC(=O)[C@H](Cc3ccc(-c4ccc(C(=O)O)cc4)cc3)NC(=O)CNC(=O)[C@@H](C)N(C)C(=O)[C@H](CC(=O)O)NC(=O)[C@H]([C@@H](C)c3c[nH]c4cccc(F)c34)NC(=O)[C@@H]3C[C@@H](N)CN3C(=O)CNC(=O)[C@H](Cc3ccc(C(=O)O)cc3)NC(=O)[C@H](Cc3c[nH]c4ccccc34)NC2=O)cc1 [Example 155] (cyclo([AEF](Ac)W[Phe(4-COOH)]G[Pro(4R-NH2)][Trp(βS-Me,4-F)]D[dNMeA]G[Bip(4'-COOH)][1Nal]S[dA][hTyr]))	0.22
CC(=O)NCCOc1ccc(C[C@@H]2NC(=O)[C@H](CCc3ccc(O)cc3)NC(=O)[C@@H](C)NC(=O)[C@H](CC(C)C)NC(=O)[C@H](Cc3ccncc3)NC(=O)[C@H](Cc3ccc(-c4ccc(C(=O)O)cc4)cc3)NC(=O)CNC(=O)[C@@H](C)N(C)C(=O)[C@H](CC(=O)O)NC(=O)[C@H]([C@@H](C)c3c[nH]c4cccc(F)c34)NC(=O)[C@@H]3C[C@@H](N)CN3C(=O)CNC(=O)[C@H](Cc3ccc(C(=O)O)cc3)NC(=O)[C@H](Cc3c[nH]c4ccccc34)NC2=O)cc1 [Example 156] (cyclo([AEF](Ac)W[Phe(4-COOH)]G[Pro(4R-NH2)][Trp(βS-Me,4-F)]D[dNMeA]G[Bip(4'-COOH)][4Pal]L[dA][hTyr]))	0.948
CCC[C@@H]1NC(=O)[C@H](Cc2ccncc2)NC(=O)[C@H](Cc2ccc(-c3ccc(C(=O)O)cc3)cc2)NC(=O)CNC(=O)[C@@H](C)N(C)C(=O)[C@H](CC(=O)O)NC(=O)[C@H]([C@@H](C)c2c[nH]c3cccc(F)c23)NC(=O)[C@@H]2C[C@@H](N)CN2C(=O)CNC(=O)[C@H](Cc2ccc(C(=O)O)cc2)NC(=O)[C@H](Cc2c[nH]c3ccccc23)NC(=O)[C@H](Cc2ccc(OCCNC(C)=O)cc2)NC(=O)[C@H](CCc2ccc(O)cc2)NC(=O)[C@@H](C)NC1=O [Example 157] (cyclo([AEF](Ac)W[Phe(4-COOH)]G[Pro(4R-NH2)][Trp(βS-Me,4-F)]D[dNMeA]G[Bip(4'-COOH)][4Pal][Nva][dA][hTyr]))	0.403
CC(=O)NCCOc1ccc(C[C@@H]2NC(=O)[C@H](CCc3cncc(C#N)c3)NC(=O)[C@@H](C)NC(=O)[C@H](CC(C)C)NC(=O)[C@H](CCCCN)NC(=O)[C@H](Cc3ccc(-c4ccc(C(=O)O)cc4)cc3)NC(=O)CNC(=O)[C@@H](C)N(C)C(=O)[C@H](CC(=O)O)NC(=O)[C@H]([C@@H](C)c3c[nH]c4cccc(F)c34)NC(=O)[C@@H]3C[C@@H](N)CN3C(=O)CNC(=O)[C@H](Cc3ccc(C(=O)O)cc3)NC(=O)[C@H](Cc3c[nH]c4ccccc34)NC2=O)cc1 [Example 158] (cyclo([AEF](Ac)W[Phe(4-COOH)]G[Pro(4R-NH2)][Trp(βS-Me,4-F)]D[dNMeA]G[Bip(4'-COOH)]KL[dA][h3Pal(5-CN)]))	0.0257
CC(=O)NCCOc1ccc(C[C@@H]2NC(=O)[C@H](CCc3ccc(O)cc3)NC(=O)[C@@H](C)NC(=O)[C@H](CC(C)C)NC(=O)[C@H](CCCCN)NC(=O)[C@H](Cc3ccc(-c4ccc(C(=O)O)cc4)cc3)NC(=O)CNC(=O)[C@@H](C)N(C)C(=O)[C@H](CC(=O)O)NC(=O)[C@H]([C@@H](C)c3c[nH]c4cccc(F)c34)NC(=O)[C@@H]3C[C@@H](N)CN3C(=O)CNC(=O)[C@H](Cc3ccc(C(=O)O)cc3)NC(=O)[C@H](Cc3c[nH]c4ccccc34)NC2=O)cc1 [Example 159] (cyclo([AEF](Ac)W[Phe(4-COOH)]G[Pro(4R-NH2)][Trp(βS-Me,4-F)]D[dNMeA]G[Bip(4'-COOH)]KL[dA][hTyr]))	0.118
CC(=O)NCCOc1ccc(C[C@@H]2NC(=O)[C@H](CCc3ccc(O)cc3)NC(=O)[C@@H](CCN)NC(=O)[C@H](CC(C)C)NC(=O)[C@H](CCCCN)NC(=O)[C@H](Cc3ccc(-c4ccc(C(=O)O)cc4)cc3)NC(=O)CNC(=O)[C@@H](C)N(C)C(=O)[C@H](CC(=O)O)NC(=O)[C@H]([C@@H](C)c3c[nH]c4cccc(F)c34)NC(=O)[C@@H]3C[C@@H](N)CN3C(=O)CNC(=O)[C@H](Cc3ccc(C(=O)O)cc3)NC(=O)[C@H](Cc3c[nH]c4ccccc34)NC2=O)cc1 [Example 160] (cyclo([AEF](Ac)W[Phe(4-COOH)]G[Pro(4R-NH2)][Trp(βS-Me,4-F)]D[dNMeA]G[Bip(4'-COOH)]KL[dDab][hTyr]))	0.522
CC(=O)NCCOc1ccc(C[C@@H]2NC(=O)[C@H](CCc3ccc(O)cc3)NC(=O)[C@@H](CO)NC(=O)[C@H](CC(C)C)NC(=O)[C@H](CCCCN)NC(=O)[C@H](Cc3ccc(-c4ccc(C(=O)O)cc4)cc3)NC(=O)CNC(=O)[C@@H](C)N(C)C(=O)[C@H](CC(=O)O)NC(=O)[C@H]([C@@H](C)c3c[nH]c4cccc(F)c34)NC(=O)[C@@H]3C[C@@H](N)CN3C(=O)CNC(=O)[C@H](Cc3ccc(C(=O)O)cc3)NC(=O)[C@H](Cc3c[nH]c4ccccc34)NC2=O)cc1 [Example 161] (cyclo([AEF](Ac)W[Phe(4-COOH)]G[Pro(4R-NH2)][Trp(βS-Me,4-F)]D[dNMeA]G[Bip(4'-COOH)]KL[dS][hTyr]))	0.483
CC(=O)NCCOc1ccc(C[C@@H]2NC(=O)CNC(=O)[C@@H](C)NC(=O)[C@H](CCN3CCOCC3)NC(=O)[C@H](Cc3c[nH]c4ccccc34)NC(=O)[C@H](Cc3ccc(-c4ccc(C(=O)O)cc4)cc3)NC(=O)CNC(=O)[C@@H](C)N(C)C(=O)[C@H](CC(=O)O)NC(=O)[C@H]([C@@H](C)c3c[nH]c4cccc(F)c34)NC(=O)[C@@H]3C[C@@H](N)CN3C(=O)CNC(=O)[C@H](Cc3ccc(C(=O)O)cc3)NC(=O)[C@H](Cc3c[nH]c4ccccc34)NC2=O)cc1 [Example 162] (cyclo([AEF](Ac)W[Phe(4-COOH)]G[Pro(4R-NH2)][Trp(βS-Me,4-F)]D[dNMeA]G[Bip(4'-COOH)]W[X7][dA]G))	0.749
